A short description of data set [1]: Lipophilicity, log P of the compound. Format: physicochemical. The conditions noted are these: octanol/water.
A further data set can be described thus: in vitro. The conditions noted are these: human, liver microsomes.
A short description of data set [2]: Half life in rat at 0.5 mg/kg, iv and 10 mg/kg, po. To be noted: in vivo. Format: ADME, organism-based.
A short description of data set [3]: Clearance in rat at 0.5 mg/kg, iv and 10 mg/kg, po. Format: ADME, organism-based. The conditions noted are these: in vivo.
A short description of data set [4]: Volume of distribution in rat at 0.5 mg/kg, iv and 10 mg/kg, po. The data set is classed as ADME, organism-based. To be noted: in vivo.
A short description of data set [5]: Oral bioavailability in rat at 10 mg/kg, po. Format: ADME, organism-based. The conditions noted are these: in vivo.
Another data set in a line: physchem. To be noted: octanol/water, pH 7.4.
The nature of data set [6]: Half life in dog at 0.5 mg/kg, iv. Format: ADME, organism-based, Canis lupus familiaris. Also on record: dose 0.5 mg/kg, route intravenous. To be noted: in vivo.
Data set [7] can be described thus: Clearance in dog at 0.5 mg/kg, iv. The data set is classed as ADME, organism-based, Canis lupus familiaris. Also on record: dose 0.5 mg/kg, route intravenous. The conditions noted are these: in vivo.
Data set [8] can be described thus: Volume of distribution in dog at 0.5 mg/kg, iv. Also on record: dose 0.5 mg/kg, route intravenous. Format: ADME, organism-based, Canis lupus familiaris. To be noted: in vivo.

Here are results for four molecules from ChEMBL document CHEMBL1152224, “Small, non-peptide C5a receptor antagonists: part 1” (Bioorg Med Chem Lett, 2008).

A value given as a limit tells only on which side of the number the result lay.

In data set [1], `O=C(Nc1ccc(F)cc1F)N1CCC(N(CCc2ccc(Cl)cc2)C(=O)c2csc3ccccc23)CC1` showed a logP above 5. Moreover, the half-life in the data set “in vitro” stood at 11 min.
For `O=C(c1csc2ccccc12)N(CCc1ccc(Cl)cc1)[C@H]1CC[C@H](O)CC1`, the half-life in data set [2] was 30 min; in the data set “in vitro” it was 14 min. For the same molecule, in data set [3], the clearance was found to be 67 mL/min/kg. In data set [4], this molecule came in with a Vd of 3 L/kg. The molecule further displayed a bioavailability in data set [5] of 0.5%. The same molecule registered a logD in “physchem” of 4.9.
With `O=C(c1cccc2ccccc12)N(CCc1ccc(Cl)cc1)[C@H]1CC[C@H](O)CC1`, the figures for the half-life (in data set [6]; in the data set “in vitro”) were 84 min and 20 min, respectively. The molecule further came in with a clearance in data set [7] of 29 mL/min/kg. In data set [8], this molecule yielded a Vd of 3.5 L/kg. This molecule also registered a logD in “physchem” above 5.
As for `O=C(c1csc2ccccc12)N(CCc1ccc(Cl)cc1)C1CCN(CCc2ccc(F)cc2F)CC1`, the log distribution coefficient (logD) in the data set “physchem” was 4.1.
